Data reported in US9249035B2, “Method and system for treating water in order to reduce its endocrine disrupting effect by means of a living organism” (Veolia Water Solutions & Technologies Support, priority 2012, dated 2016).

Tested on: larvae of genetically modified amphibians
Test: Calibration test: fluorescence of genetically modified amphibian larvae exposed to growing estrogen concentrations
Assay type: in vivo
Details: FIG. 3
Description: A test of calibration of a plant to implement the method according to the invention was carried in order to determine an acceptable threshold value of endocrine disruptors in the treated water. This calibration test also makes it possible to distinguish the natural fluorescence of water and the basal fluorescence of genetically modified aquatic organisms, related to the normal functioning of the genes, from the fluorescence emitted by the same organisms when they detect the presence of an endocrine disrupting and/or toxic and/or genotoxic pollutant. The fluorescence of water and the basal fluorescence of the genetically modified aquatic organisms can be likened to background noise which must be evaluated in order to deduct it from the signal measured in the presence of a pollutant.
The disruptor chosen for example is estrogen which is found in urban wastewater. […] These concentrations have been related to measured intensities of fluorescence.
From a reading of this graph, it can observed that amphibian larvae are sensitive to very low doses of estrogen such as ethinyl-oestradiol (EE2) (2.5×10^−10 mol/L) and emit a detectable and quantifiable intensity of fluorescence. […] This concentration is related with the measured intensity of fluorescence. […]

ethinyl-oestradiol
estrogen concentration leading to a physiological reversal: ≥ 2×10^−9 mol/L | very low dose at which amphibian larvae emit a detectable and quantifiable intensity of fluorescence: 2.5e-10 mol/L
